In patent US20230183193A1, “4-DIFLUOROMETHYL BENZOYL AMIDES WITH HERBICIDAL ACTION” (BAYER CROPSCIENCE AKTIENGESELLSCHAFT, priority 2017, published 2023):

What was measured:
Stellaria media [1] = test: Pre-emergence herbicidal action, STEME; assay type: in vivo
Summary of the method: (§1)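 Percent herbicidal activity rated by eye 3 weeks after pre-emergence soil-surface application, compared with untreated pots. Seeds sat under sandy loam; sprays carried 0.2% wetting agent.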

Amaranthus retroflexus [2] = test: Pre-emergence herbicidal action, AMARE; assay type: in vivo
Summary of the method: as §1

ECHCG [3] = test: Pre-emergence herbicidal action, ECHCG; assay type: in vivo; details: 80 g/ha, comparison with WO 2011035874, Table G
Text: (§2) 1. Pre-Emergence Herbicidal Action Against Harmful Plants Seeds of monocotyledonous and dicotyledonous weed plants and crop plants are laid out in sandy loam soil in wood-fiber pots and covered with soil. The compounds of the invention, formulated in the form of wettable powders (WP) or as emulsion concentrates (EC), are then applied to the surface of the covering soil in the form of an aqueous suspension or emulsion at a water application rate equating to […], with addition of 0.2% wetting agent. After the treatment, the pots are placed in a greenhouse and kept under good growth conditions for the trial plants. The damage to the test plants is scored visually after a test period of 3 weeks by comparison with untreated controls (herbicidal activity in percent (%): 100% activity=the plants have died, 0% activity=like control plants).

Setaria viridis [4] = test: Pre-emergence herbicidal action, SETVI; assay type: in vivo
Summary of the method: as §1

Amaranthus retroflexus [5] = test: Post-emergence herbicidal action, AMARE; assay type: in vivo; details: 80 g/ha, Table D
Summary of the method: (§3)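 Post-emergence spray; one-leaf stage (2–3 wk after sowing), sandy loam, greenhouse. WP/EC in water, 600 to […], +0.2% wetting agent. Visual % damage vs untreated at ~3 wk; 100% = plants dead.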

ECHCG [6] = test: Pre-emergence herbicidal action, ECHCG; assay type: in vivo, Echinochloa crus-galli
Viola tricolor [7] = test: Post-emergence herbicidal action, VIOTR; assay type: in vivo
Summary of the method: as §3

Setaria viridis [8] = test: Post-emergence herbicidal action, SETVI; assay type: in vivo
Summary of the method: as §3

Polygonum convolvulus = test: Pre-emergence herbicidal action, POLCO; assay type: in vivo
Text: as §2
(§4) For comparison, the herbicidal activity of numerous compounds according to the invention was tested with the structurally closest compounds known from the documents WO 2011/035874, WO 2012/028579 and WO 2012/126932, by the pre- and post-emergence method.

ECHCG [9] = test: Post-emergence herbicidal action, ECHCG; assay type: in vivo; details: 80 g/ha, Table C
Summary of the method: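 Weed and crop plants grown in sandy loam in the greenhouse, treated at the one-leaf stage 2–3 weeks after sowing. Damage scored visually after about 3 weeks vs untreated controls (0% = control, 100% = dead).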

Matricaria inodora = test: Pre-emergence herbicidal action, MATIN; assay type: in vivo; details: for Herbicidal efficacy against MATIN: Table K
Summary of the method: as §1

Abutilon theophrasti [10] = test: Post-emergence herbicidal action, ABUTH; assay type: in vivo; details: 80 g/ha
Summary of the method: as §3

Alopecurus myosuroides [11] = test: Post-emergence herbicidal action, ALOMY; assay type: in vivo
Summary of the method: as §3

Avena fatua [12] = test: Pre-emergence herbicidal action, AVEFA; assay type: in vivo
Summary of the method: as §1

Stellaria media [13] = test: Post-emergence herbicidal action, STEME; assay type: in vivo
Summary of the method: as §3

Veronica persica = test: Pre-emergence herbicidal action, VERPE; assay type: in vivo; details: 80 g/ha, comparison with WO 2011035874, Table H
Text: as §2, §4

Abutilon theophrasti [14] = test: Pre-emergence herbicidal action, ABUTH; assay type: in vivo
Summary of the method: as §1

Avena fatua [15] = test: Post-emergence herbicidal action, AVEFA; assay type: in vivo
Summary of the method: as §3

Alopecurus myosuroides [16] = test: Pre-emergence herbicidal action, ALOMY; assay type: in vivo
Summary of the method: as §1

Cyperus serotinus = test: Pre-emergence herbicidal action, CYPES; assay type: in vivo
Summary of the method: as §1

Pharbitis purpureum = test: Post-emergence herbicidal action, PHBPU; assay type: in vivo; details: 80 g/ha, Table D
Summary of the method: as §3

Viola tricolor [17] = test: Pre-emergence herbicidal action, VIOTR; assay type: in vivo
Summary of the method: as §1

[18] = 80 g/ha, comparison with WO 2011035874, Table H
[19] = dosage 320 g/ha, scored visually after 3 weeks vs untreated controls
[20] = 80 g/ha, comparison with WO 2011035874, Table G

## Cn1nnnc1NC(=O)c1ccc(C(F)F)c(S(C)(=O)=O)c1Cl [Example 1-51]
Stellaria media [1]; [18]
  Herbicidal efficacy against STEME: 90%
Stellaria media [1]; [19]
  Herbicidal activity STEME: 100%
Amaranthus retroflexus [2]; [18]
  Herbicidal efficacy against AMARE: 100%
Amaranthus retroflexus [2]; [19]
  herbicidal activity AMARE: 100%
ECHCG [3]
  Herbicidal efficacy against ECHCG: 30%
Setaria viridis [4]; 20 g/ha
  Herbicidal efficacy against SETVI: 100
Setaria viridis [4]; 80 g/ha
  Herbicidal efficacy against SETVI: 100
Setaria viridis [4]; [20]
  Herbicidal efficacy against SETVI: 60%
Setaria viridis [4]; 320 g/ha
  Herbicidal efficacy against SETVI: 100
Setaria viridis [4]; [19]
  herbicidal activity SETVI: 100%
Amaranthus retroflexus [5]
  herbicidal activity AMARE: 100%
ECHCG [6]; 20 g/ha
  Herbicidal efficacy against ECHCG: 100
ECHCG [6]; 80 g/ha
  Herbicidal efficacy against ECHCG: 100
ECHCG [6]; 320 g/ha
  Herbicidal efficacy against ECHCG: 100
Viola tricolor [7]; 5 g/ha
  Herbicidal efficacy against VIOTR: 100
Viola tricolor [7]; 20 g/ha
  Herbicidal efficacy against VIOTR: 100
Viola tricolor [7]; 80 g/ha
  Herbicidal efficacy against VIOTR: 100
Viola tricolor [7]; 80 g/ha, Table D
  herbicidal activity VIOTR: 100%
Setaria viridis [8]; 5 g/ha
  Herbicidal efficacy against SETVI: 90
Setaria viridis [8]; 20 g/ha
  Herbicidal efficacy against SETVI: 100
Setaria viridis [8]; 80 g/ha
  Herbicidal efficacy against SETVI: 100
Setaria viridis [8]; 80 g/ha, Table C
  herbicidal activity SETVI: 100%
Polygonum convolvulus; [18]
  Herbicidal efficacy against POLCO: 0%
Polygonum convolvulus; dosage 20 g/ha, Table K
  Herbicidal efficacy against POLCO: 30
Polygonum convolvulus; dosage 80 g/ha, Table K
  Herbicidal efficacy against POLCO: 80
Polygonum convolvulus; dosage 320 g/ha, Table K
  Herbicidal efficacy against POLCO: 90
ECHCG [9]
  Herbicidal activity ECHCG: 100%
Matricaria inodora; dosage 20 g/ha
  Herbicidal efficacy against MATIN: 90
Matricaria inodora; dosage 80 g/ha
  Herbicidal efficacy against MATIN: 100
Matricaria inodora; dosage 320 g/ha
  Herbicidal efficacy against MATIN: 100
Matricaria inodora; [19]
  herbicidal activity MATIN: 100%
Abutilon theophrasti [10]; Table D
  herbicidal activity ABUTH: 100%
Abutilon theophrasti [10]; comparison with WO2011035874, Table F
  Herbicidal efficacy against ABUTH: 80%
Alopecurus myosuroides [11]; 5 g/ha
  Herbicidal efficacy against ALOMY: 40
Alopecurus myosuroides [11]; 20 g/ha
  Herbicidal efficacy against ALOMY: 90
Alopecurus myosuroides [11]; 80 g/ha
  Herbicidal efficacy against ALOMY: 100
Alopecurus myosuroides [11]; 80 g/ha, Table C
  herbicidal activity ALOMY: 100%
Avena fatua [12]; 80 g/ha
  Herbicidal efficacy against AVEFA: 90
Avena fatua [12]; [20]
  Herbicidal efficacy against AVEFA: 0%
Avena fatua [12]; 320 g/ha
  Herbicidal efficacy against AVEFA: 100
Avena fatua [12]; [19]
  herbicidal activity AVEFA: 100%
Stellaria media [13]; 5 g/ha
  Herbicidal efficacy against STEME: 100
Stellaria media [13]; 20 g/ha
  Herbicidal efficacy against STEME: 100
Stellaria media [13]; 80 g/ha
  Herbicidal efficacy against STEME: 100
Stellaria media [13]; 80 g/ha, Table D
  Herbicidal activity STEME: 100%
Stellaria media [13]; 80 g/ha, comparison with WO2011035874, Table F
  Herbicidal efficacy against STEME: 40%
Veronica persica
  Herbicidal efficacy against VERPE: 100%
Abutilon theophrasti [14]; [20]
  Herbicidal efficacy against ABUTH: 100%
Abutilon theophrasti [14]; dosage 20 g/ha, Table K
  Herbicidal efficacy against ABUTH: 100
Abutilon theophrasti [14]; dosage 80 g/ha, Table K
  Herbicidal efficacy against ABUTH: 100
Abutilon theophrasti [14]; dosage 320 g/ha, Table K
  Herbicidal efficacy against ABUTH: 100
Abutilon theophrasti [14]; [19]
  herbicidal activity ABUTH: 100%
Avena fatua [15]; 5 g/ha
  Herbicidal efficacy against AVEFA: 60
Avena fatua [15]; 20 g/ha
  Herbicidal efficacy against AVEFA: 90
Avena fatua [15]; 80 g/ha
  Herbicidal efficacy against AVEFA: 100
Avena fatua [15]; 80 g/ha, Table C
  herbicidal activity AVEFA: 100%
Alopecurus myosuroides [16]; 20 g/ha
  Herbicidal efficacy against ALOMY: 80
Alopecurus myosuroides [16]; 80 g/ha
  Herbicidal efficacy against ALOMY: 100
Alopecurus myosuroides [16]; [20]
  Herbicidal efficacy against ALOMY: 10%
Alopecurus myosuroides [16]; 320 g/ha
  Herbicidal efficacy against ALOMY: 100
Alopecurus myosuroides [16]; [19]
  herbicidal activity ALOMY: 100%
Cyperus serotinus; 20 g/ha
  Herbicidal efficacy against CYPES: 90
Cyperus serotinus; 80 g/ha
  Herbicidal efficacy against CYPES: 90
Cyperus serotinus; [20]
  Herbicidal efficacy against CYPES: 0%
Cyperus serotinus; 320 g/ha
  Herbicidal efficacy against CYPES: 100
Cyperus serotinus; [19]
  herbicidal activity CYPES: 100%
Pharbitis purpureum
  Herbicidal activity PHBPU: 100%
Viola tricolor [17]; [18]
  Herbicidal efficacy against VIOTR: 60%
Viola tricolor [17]; dosage 20 g/ha, Table K
  Herbicidal efficacy against VIOTR: 100
Viola tricolor [17]; dosage 80 g/ha, Table K
  Herbicidal efficacy against VIOTR: 100
Viola tricolor [17]; dosage 320 g/ha, Table K
  Herbicidal efficacy against VIOTR: 100
Viola tricolor [17]; [19]
  herbicidal activity VIOTR: 100%
